In patent US9809625B2, “Immunomodulators” (BRISTOL-MYERS SQUIBB COMPANY, priority 2015, dated 2017):
Bridge positions count the residues as written; N and C are the ends. Square brackets hold non-standard residues; d marks the D form. Peptide text beside a SMILES is read from it. * marks the point of attachment. ξ: configuration not given here. Trp(1-CH2COOH) = N[C@@H](Cc1cn(CC(=O)O)c2ccccc12)C(=O)O; Hyp = O=C(O)[C@@H]1C[C@@H](O)CN1; Piperazinyl(4-Me) = CN1CCN(*)CC1; ξW = NC(Cc1c[nH]c2ccccc12)C(=O)O; NH(3-picolyl) = c1cncc(CN*)c1; NMeNle = CCCC[C@H](NC)C(=O)O; Morpholide = C1CN(*)CCO1; NMeA = CN[C@@H](C)C(=O)O; Piperidide = C1CCN(*)CC1; Pyrrolidide = C1CCN(*)C1; Dab = NCC[C@H](N)C(=O)O; X4 = [N-]=[N+]=NCCCCCN*; Dap = NC[C@H](N)C(=O)O; NHBn = c1ccc(CN*)cc1; NHCH2CH2OMe = COCCN*; N(Me)nPr = CCCN(C)*; NHcBu = C1CC(N*)C1; NHcPr = C1CC1N*; Sar = CNCC(=O)O

Molecular target: T1, PD-1-Ig binding to PD-L1-TVMV-His (PD-L1-His) (Homo sapiens, UniProt Q9NZQ7)
T1 construct: hPDL1(19-239)-TVMV-His; TVMV protease cleavage site (C); made in house; host or cells: HEK293T
Assay: PD-1/PD-L1 Homogenous Time-Resolved Fluorescence (HTRF) binding assay
Conditions: PD-1-Ig (20 nM)/PD-L1-His (10 nM), range classes
Source text: Methods for Testing the Ability of Macrocyclic Peptides to Compete for the Binding of PD-1 to PD-L1 Using Homogenous Time-Resolved Fluorescence (HTRF) Binding Assays
The ability of the macrocyclic peptides of the present disclosure to bind to PD-L1 was investigated using a PD-1/PD-L1 Homogenous Time-Resolved Fluorescence (HTRF) binding assay.
Homogenous Time-Resolved Fluorescence (HTRF) Assays of Binding of Soluble PD-1 to Soluble PD-L1. Soluble PD-1 and soluble PD-L1 refers to proteins with carboxyl-end truncations that remove the transmembrane-spanning regions and are fused to heterologous sequences, specifically the Fc portion of the human immunoglobuling G sequence (Ig) or the hexahistidine epitope tag (His). All binding studies were performed in an HTRF assay buffer consisting of dPBS supplemented with 0.1% (w/v) bovine serum albumin and 0.05% (v/v) Tween-20. For the PD-1-Ig/PD-L1-His binding assay, inhibitors were pre-incubated with PD-L1-His (10 nM final) for 15 m in 4 μl of assay buffer, followed by addition of PD-1-Ig (20 nM final) in 1 μl of assay buffer and further incubation for 15 m. PD-L1 fusion proteins from either human, cynomologous macaques, mouse, or other species were used. HTRF detection was achieved using europium crypate-labeled anti-Ig monoclonal antibody (1 nM final) and allophycocyanin (APC) labeled anti-His monoclonal antibody (20 nM final). Antibodies were diluted in HTRF detection buffer and 5 μl was dispensed on top of binding reaction. The reaction was allowed to equilibrate for 30 minutes and signal (665 nm/620 nm ratio) was obtained using an EnVision fluorometer. Additional binding assays were established between PD-1-Ig/PD-L2-His (20 and 5 nM, respectively), CD80-His/PD-L1-Ig (100 and 10 nM, respectively) and CD80-His/CTLA4-Ig (10 and 5 nM, respectively). Binding/competition studies between biotinylated Compound No. 71 and human PD-L1-His were performed as follows. Macrocyclic peptide inhibitors were pre-incubated with PD-L1-His (10 nM final) for 60 minutes in 4 μl of assay buffer followed by addition of biotinylated Compound No. 71 (0.5 nM final) in 1 μl of assay buffer. Binding was allowed to equilibrate for 30 minutes followed by addition of europium crypated labeled Streptavidin (2.5 pM final) and APC-labeled anti-His (20 nM final) in 5 μl of HTRF buffer. The reaction was allowed to equilibrate for 30 m and signal (665 nm/620 nm ratio) was obtained using an EnVision fluorometer.
Recombinant Proteins. Carboxyl-truncated human PD-1 (amino acids 25-167) with a C-terminal human Ig epitope tag [hPD-1 (25-167)-3S-IG] and human PD-L1 (amino acids 18-239) with a C-terminal His epitope tag [hPD-L1(19-239)-tobacco vein mottling virus protease cleavage site (TVMV)-His] were expressed in HEK293T cells and purified sequentially by recombinant Protein A affinity chromatography and size exclusion chromatography. Human PD-L2-His (Sino Biologicals), CD80-His (Sino Biologicals), CTLA4-Ig (RnD Systems) were all obtained through commercial sources.

T1 sequence (Q9NZQ7 with tags, fused parts or gaps): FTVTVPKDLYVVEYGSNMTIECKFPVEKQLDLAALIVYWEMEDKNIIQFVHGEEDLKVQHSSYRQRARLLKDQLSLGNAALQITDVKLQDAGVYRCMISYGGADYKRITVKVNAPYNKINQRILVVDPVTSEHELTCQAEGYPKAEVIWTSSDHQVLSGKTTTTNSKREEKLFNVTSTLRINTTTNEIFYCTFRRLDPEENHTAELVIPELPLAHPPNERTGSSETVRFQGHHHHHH

Row | IC50 [nM] | Structure (SMILES)
1 | 4 to 9.9 | CCCC[C@H]1C(=O)N(C)[C@@H](CCCC)C(=O)N[C@@H](CC(C)C)C(=O)N[C@H](C(=O)NCC(=O)NCc2ccccc2)CSCC(=O)N[C@@H](Cc2ccc(O)cc2)C(=O)N(C)[C@@H](C)C(=O)N[C@@H](CC(N)=O)C(=O)N2CCC[C@H]2C(=O)N[C@@H](CN)C(=O)N[C@@H](CC(C)C)C(=O)N2C[C@H](O)C[C@H]2C(=O)N[C@@H](Cc2c[nH]c3ccccc23)C(=O)N[C@@H](CCN)C(=O)N[C@@H](Cc2cn(CC(=O)O)c3ccccc23)C(=O)N1C [Example 13080] ({CH2CO}-Y[NMeA]NP[Dap]L[Hyp]W[Dab][Trp(1-CH2COOH)][NMeNle][NMeNle]LCG-NHBn; thioether N-14)
2 | 10 to 60 | CCCC[C@H]1C(=O)N(C)[C@@H](CCCC)C(=O)N[C@@H](CC(C)C)C(=O)N[C@H](C(=O)NCC(=O)NCCCCCN=[N+]=[N-])CSCC(=O)N[C@@H](Cc2ccc(O)cc2)C(=O)N(C)[C@@H](C)C(=O)N[C@@H](CC(N)=O)C(=O)N2CCC[C@H]2C(=O)N[C@@H](CO)C(=O)N[C@@H](CCC(N)=O)C(=O)N2C[C@H](O)C[C@H]2C(=O)N[C@@H](Cc2c[nH]c3ccccc23)C(=O)N[C@@H](CO)C(=O)N[C@@H](Cc2c[nH]c3ccccc23)C(=O)N1C [Example 13081] ({CH2CO}-Y[NMeA]NPSQ[Hyp]WSW[NMeNle][NMeNle]LCG-X4; thioether N-14)
3 | 10 to 60 | CCCC[C@H]1C(=O)N(C)[C@@H](CCCC)C(=O)N[C@@H](CC(C)C)C(=O)N[C@H](C(=O)NCC(=O)NCCOC)CSCC(=O)N[C@@H](Cc2ccc(O)cc2)C(=O)N(C)[C@@H](C)C(=O)N[C@@H](CC(N)=O)C(=O)N2CCC[C@H]2C(=O)N[C@@H](CN)C(=O)N[C@@H](CC(C)C)C(=O)N2C[C@H](O)C[C@H]2C(=O)N[C@@H](Cc2c[nH]c3ccccc23)C(=O)NCC(=O)N[C@@H](Cc2c[nH]c3ccccc23)C(=O)N1C [Example 13082] ({CH2CO}-Y[NMeA]NP[Dap]L[Hyp]WGW[NMeNle][NMeNle]LCG-NHCH2CH2OMe; thioether N-14)
4 | 10 to 60 | CCCC[C@H]1C(=O)N(C)[C@@H](CCCC)C(=O)N[C@@H](CC(C)C)C(=O)N[C@H](C(=O)NCC(=O)N(C)CCC)CSCC(=O)N[C@@H](Cc2ccc(O)cc2)C(=O)N(C)[C@@H](C)C(=O)N[C@@H](CC(N)=O)C(=O)N2CCC[C@H]2C(=O)N[C@@H](CN)C(=O)N[C@@H](CC(C)C)C(=O)N2C[C@H](O)C[C@H]2C(=O)N[C@@H](Cc2c[nH]c3ccccc23)C(=O)NCC(=O)N[C@@H](Cc2c[nH]c3ccccc23)C(=O)N1C [Example 13084] ({CH2CO}-Y[NMeA]NP[Dap]L[Hyp]WGW[NMeNle][NMeNle]LCG-{N(Me)nPr}; thioether N-14)
5 | 10 to 60 | CCCC[C@H]1C(=O)N(C)[C@@H](CCCC)C(=O)N[C@@H](CC(C)C)C(=O)N[C@H](C(=O)NCC(=O)N2CCCC2)CSCC(=O)N[C@@H](Cc2ccc(O)cc2)C(=O)N(C)[C@@H](C)C(=O)N[C@@H](CC(N)=O)C(=O)N2CCC[C@H]2C(=O)N[C@@H](CN)C(=O)N[C@@H](CC(C)C)C(=O)N2C[C@H](O)C[C@H]2C(=O)N[C@@H](Cc2c[nH]c3ccccc23)C(=O)NCC(=O)N[C@@H](Cc2c[nH]c3ccccc23)C(=O)N1C [Example 13085] ({CH2CO}-Y[NMeA]NP[Dap]L[Hyp]WGW[NMeNle][NMeNle]LCG-Pyrrolidide; thioether N-14)
6 | 4 to 9.9 | CCCC[C@H]1C(=O)N(C)[C@@H](CCCC)C(=O)N[C@@H](CC(C)C)C(=O)N[C@H](C(=O)NCC(=O)N2CCCCC2)CSCC(=O)N[C@@H](Cc2ccc(O)cc2)C(=O)N(C)[C@@H](C)C(=O)N[C@@H](CC(N)=O)C(=O)N2CCC[C@H]2C(=O)N[C@@H](CN)C(=O)N[C@@H](CC(C)C)C(=O)N2C[C@H](O)C[C@H]2C(=O)N[C@@H](Cc2c[nH]c3ccccc23)C(=O)NCC(=O)N[C@@H](Cc2c[nH]c3ccccc23)C(=O)N1C [Example 13086] ({CH2CO}-Y[NMeA]NP[Dap]L[Hyp]WGW[NMeNle][NMeNle]LCG-Piperidide; thioether N-14)
7 | 10 to 60 | CCCC[C@H]1C(=O)N(C)[C@@H](CCCC)C(=O)N[C@@H](CC(C)C)C(=O)N[C@H](C(=O)NCC(=O)N2CCOCC2)CSCC(=O)N[C@@H](Cc2ccc(O)cc2)C(=O)N(C)[C@@H](C)C(=O)N[C@@H](CC(N)=O)C(=O)N2CCC[C@H]2C(=O)N[C@@H](CN)C(=O)N[C@@H](CC(C)C)C(=O)N2C[C@H](O)C[C@H]2C(=O)N[C@@H](Cc2c[nH]c3ccccc23)C(=O)NCC(=O)N[C@@H](Cc2c[nH]c3ccccc23)C(=O)N1C [Example 13087] ({CH2CO}-Y[NMeA]NP[Dap]L[Hyp]WGW[NMeNle][NMeNle]LCG-Morpholide; thioether N-14)
8 | 10 to 60 | CCCC[C@H]1C(=O)N(C)[C@@H](CCCC)C(=O)N[C@@H](CC(C)C)C(=O)N[C@H](C(=O)NCC(=O)N2CCN(C)CC2)CSCC(=O)N[C@@H](Cc2ccc(O)cc2)C(=O)N(C)[C@@H](C)C(=O)N[C@@H](CC(N)=O)C(=O)N2CCC[C@H]2C(=O)N[C@@H](CN)C(=O)N[C@@H](CC(C)C)C(=O)N2C[C@H](O)C[C@H]2C(=O)N[C@@H](Cc2c[nH]c3ccccc23)C(=O)NCC(=O)N[C@@H](Cc2c[nH]c3ccccc23)C(=O)N1C [Example 13089] ({CH2CO}-Y[NMeA]NP[Dap]L[Hyp]WGW[NMeNle][NMeNle]LCG-{Piperazinyl(4-Me)}; thioether N-14)
9 | 4 to 9.9 | CCCC[C@H]1C(=O)N(C)[C@@H](CCCC)C(=O)N[C@@H](CC(C)C)C(=O)N[C@H](C(=O)N(C)CC(N)=O)CSCC(=O)N[C@@H](Cc2ccc(O)cc2)C(=O)N(C)[C@@H](C)C(=O)N[C@@H](CC(N)=O)C(=O)N2CCC[C@H]2C(=O)N[C@@H](CN)C(=O)N[C@@H](CC(C)C)C(=O)N2C[C@H](O)C[C@H]2C(=O)N[C@@H](Cc2c[nH]c3ccccc23)C(=O)NCC(=O)N[C@@H](Cc2c[nH]c3ccccc23)C(=O)N1C [Example 13090] ({CH2CO}-Y[NMeA]NP[Dap]L[Hyp]WGW[NMeNle][NMeNle]LC[Sar]-NH2; thioether N-14)
10 | 4 to 9.9 | CCCC[C@H]1C(=O)N(C)[C@@H](CCCC)C(=O)N[C@@H](CC(C)C)C(=O)N[C@H](C(=O)NCC(=O)NC2CC2)CSCC(=O)N[C@@H](Cc2ccc(O)cc2)C(=O)N(C)[C@@H](C)C(=O)N[C@@H](CC(N)=O)C(=O)N2CCC[C@H]2C(=O)N[C@@H](CN)C(=O)N[C@@H](CC(C)C)C(=O)N2C[C@H](O)C[C@H]2C(=O)N[C@@H](Cc2c[nH]c3ccccc23)C(=O)NCC(=O)NC(Cc2c[nH]c3ccccc23)C(=O)N1C (stereo partly drawn) [Example 13091] ({CH2CO}-Y[NMeA]NP[Dap]L[Hyp]WG[ξW][NMeNle][NMeNle]LCG-NHcPr; thioether N-14)
11 | 10 to 60 | CCCC[C@H]1C(=O)N(C)[C@@H](CCCC)C(=O)N[C@@H](CC(C)C)C(=O)N[C@H](C(=O)NCC(=O)NC2CCC2)CSCC(=O)N[C@@H](Cc2ccc(O)cc2)C(=O)N(C)[C@@H](C)C(=O)N[C@@H](CC(N)=O)C(=O)N2CCC[C@H]2C(=O)N[C@@H](CN)C(=O)N[C@@H](CC(C)C)C(=O)N2C[C@H](O)C[C@H]2C(=O)N[C@@H](Cc2c[nH]c3ccccc23)C(=O)NCC(=O)N[C@@H](Cc2c[nH]c3ccccc23)C(=O)N1C [Example 13092] ({CH2CO}-Y[NMeA]NP[Dap]L[Hyp]WGW[NMeNle][NMeNle]LCG-NHcBu; thioether N-14)
12 | 10 to 60 | CCCC[C@H]1C(=O)N(C)[C@@H](CCCC)C(=O)N[C@@H](CC(C)C)C(=O)N[C@H](C(=O)NCC(=O)NCc2cccnc2)CSCC(=O)N[C@@H](Cc2ccc(O)cc2)C(=O)N(C)[C@@H](C)C(=O)N[C@@H](CC(N)=O)C(=O)N2CCC[C@H]2C(=O)N[C@@H](CN)C(=O)N[C@@H](CC(C)C)C(=O)N2C[C@H](O)C[C@H]2C(=O)N[C@@H](Cc2c[nH]c3ccccc23)C(=O)NCC(=O)NC(Cc2c[nH]c3ccccc23)C(=O)N1C (stereo partly drawn) [Example 13094] ({CH2CO}-Y[NMeA]NP[Dap]L[Hyp]WG[ξW][NMeNle][NMeNle]LCG-{NH(3-picolyl)}; thioether N-14)
